Experimental findings from patent US9708310B2, “Phenanthroindolizidine and phenanthroquinolizidine alkaloid having a hydroxyl group on the phenanthrene ring thereof, preparation method and use thereof” (CHINA MEDICAL UNIVERSITY, priority 2015, dated 2017) are described below.

Data set [1] relates to breast carcinoma (MCF-7) cells. As to the kind of experiment: Cell viability (MTT) assay, MCF-7. Type of data set: cell-based, human. How it is done:
(§1) 8. Typical Procedure for Cell Viability Assay
(§2) The breast carcinoma (MCF-7), lung carcinoma (H1299), and prostate carcinoma (DU145) cells were first plated at a density of 5×10^3 cells per well in 96-well plates for overnight and then treated with different concentrations of these compounds. After 48 h of treatment, 100 µL of MTT solution was added to each well and the cells were incubated for 1 h at 37° C. Then, the MTT solution was completely removed and […] of DMSO was added to solubilize the MTT formazan crystals. Finally, the absorbance was measured using a MQX200R microplate reader (BioTek, VT, USA) at a wavelength of 550 nm.

Data set [2] concerns lung carcinoma (H1299) cells. The data set can be described thus: Cell viability (MTT) assay, H1299. Format: cell-based, human. Here is the method:
as §1, §2

Data set [3] concerns prostate carcinoma (DU145) cells. As to the kind of experiment: Cell viability (MTT) assay, DU145. Type of data set: cell-based, human. Here is the method: as §1, §2
Where [4] appears, read: Homo sapiens, MCF7, 48 h treatment.
[5] abbreviates: Homo sapiens, NCI-H1299, 48 h treatment.
Where [6] appears, read: Homo sapiens, DU-145, 48 h treatment.

pIC50: −log10 of the molar value.

By pIC50 is commonly meant the IC50 on a negative log10 scale, so that one unit is a factor of ten. Low readings indicate a large IC50, high ones a small IC50. As for `COc1cc2c3c(c4cc(OC)c(OC)c(OC)c4c2cc1OC)CC1CCCCN1C3` (stereo not drawn) [Compound 5d, 4,7-Dimethoxycryptoplerine], the pIC50 was 7.21 in data set [1] (48 h treatment), 7.26 in data set [2] (48 h treatment) and 7.45 in data set [3] (48 h treatment).

Regarding `COc1ccc2c3c(c4cc(OC)c(OC)cc4c2c1)C[C@H]1CCCCN1C3` [Compound 5g, Cryptopleurine], the pIC50 was 7.95 in data set [1] (48 h treatment), 8.05 in data set [2] (48 h treatment) and 8.34 in data set [3] (48 h treatment).

As to `COc1cc2c3c(c4cc(OC)c(OC)cc4c2cc1OC)CN1CCC[C@@H]1C3` [Compound 4i, Tylophorine], the pIC50 in data set [1] (48 h treatment) was 7.39; in data set [2] (48 h treatment) it was 7.51; in data set [3] (48 h treatment) it was 7.55.

As to Desmethoxytylophorine [Compound 4f], the pIC50 was 5.72 in data set [1] (48 h treatment), 5.70 in data set [2] (48 h treatment) and 5.82 in data set [3] (48 h treatment).

The term melting point denotes the temperature of the solid-liquid transition. `COc1ccc2c(c1)c1c(c3cc(OC)c(OC)cc32)CN2CCCCC2C1` (stereo not drawn) [Compound 5c, 2,6,7-Trimethoxy-10,11,12,13,13a,14-hexahydro-9H-9a-azabenzo[b]triphenylene] returned a melting point of 182 to 184 °C. This compound showed a pIC50 in data set [1] (setting [4]) of 6.41. In data set [2] (setting [5]), the pIC50 was 6.50. In data set [3] (setting [6]), the pIC50 is 6.55.

On to `COc1ccc2c3c(c4cc(OC)c(OC)cc4c2c1)C[C@H]1CCCN1C3` [Compound 4g, Antofine], for which the pIC50 in data set [1] (48 h treatment) is 7.37; in data set [2] (48 h treatment), 7.49; in data set [3] (48 h treatment) it was 7.52.

The compound `COc1cc2c3c(c4c(OC)c(OC)c(OC)cc4c2cc1OC)CC1CCCN1C3` (stereo not drawn) [Compound 4a, 1,2,3,6,7-Pentamethoxy-11,12,12a,13-tetrahydro-10H-9a-azacyclopenta[b]triphenylene] showed a melting point of 225 to 226 °C. Also, the pIC50 in data set [1] (setting [4]) is less than 5.60. The compound further showed a pIC50 in data set [2] (setting [5]) of less than 5.60. The pIC50 in data set [3] (setting [6]) is less than 5.60.

`COc1cc2c3c(c4c(OC)c(OC)c(OC)cc4c2cc1OC)CC1CCCCN1C3` (stereo not drawn) [Compound 5a, 1,2,3,6,7-Pentamethoxy-10,11,12,13,13a,14-hexahydro-9H-9a-azabenzo[b]triphenylene] came in with a melting point of 191 to 192 °C. This compound also had a pIC50 in data set [1] (setting [4]) of 6.56. The compound further had a pIC50 in data set [2] (setting [5]) of 6.60. The compound further showed a pIC50 in data set [3] (setting [6]) of 6.57.

Turning to `COc1ccc2c3c(c4cc(OC)c(OC)cc4c2c1)CN1CCCCC1C3` (stereo not drawn) [Compound 5b, Boehmeriasin A], the pIC50 in data set [1] (48 h treatment) was 6.56; in data set [2] (48 h treatment), 6.68; in data set [3] (48 h treatment), 6.73.

Consider `COc1cc2c3c(c4cc(OC)c(OC)c(OC)c4c2cc1OC)CN1CCCCC1C3` (stereo not drawn) [Compound 5e, 2,3,5,6,7-Pentamethoxy-10,11,12,13,13a,14-hexahydro-9H-9a-azabenzo[b]triphenylene], for which the melting point lay within 166 to 167 °C. In addition, the pIC50 in data set [1] (setting [4]) is 7.71. The pIC50 in data set [2] (setting [5]) was 7.56. In addition, the pIC50 in data set [3] (setting [6]) was 7.62.

For `COc1ccc2c3c(c4cc(OC)c(OC)cc4c2c1)CN1CCC[C@H]1C3` [Compound 4b, Deoxypergularinine], the pIC50 in data set [1] (48 h treatment) is 6.52; in data set [2] (48 h treatment) it was 6.63; in data set [3] (48 h treatment), 6.76.

Turning to `COc1cc2c3c(c4cc(OC)c(OC)c(OC)c4c2cc1OC)CC1CCCN1C3` (stereo not drawn) [Compound 4d, 4-Methoxytylophorine], the negative-log IC50 (pIC50) in data set [1] (48 h treatment) is 7.21; in data set [2] (48 h treatment), 7.27; in data set [3] (48 h treatment), 7.23.

As to `COc1cc2c3c(c4cc(OC)c(OC)c(OC)c4c2cc1OC)CN1CCCC1C3` (stereo not drawn) [Compound 4e, 2,3,5,6,7-Pentamethoxy-11,12,12a,13-tetrahydro-10H-9a-azacyclopenta[b]triphenylene], the melting point lay within 169 to 170 °C. This compound gave a pIC50 in data set [1] (setting [4]) of 6.65. Further, in data set [2] (setting [5]), the pIC50 is 6.78. This compound also had a negative-log IC50 (pIC50) in data set [3] (setting [6]) of 6.82.

Compound `COc1ccc2c(c1)c1c(c3cc(OC)c(OC)cc32)CN2CCCC2C1` (stereo not drawn) [Compound 4c, 2,6,7-Trimethoxy-11,12,12a,13-tetrahydro-10H-9a-azacyclopenta[b]triphenylene] yielded a melting point of 187 to 189 °C. The same compound had a negative-log IC50 (pIC50) in data set [1] (setting [4]) of 5.61. Also, in data set [2] (setting [5]), the pIC50 is less than 5.60. The compound further gave a negative logarithm of the IC50 (pIC50) in data set [3] (setting [6]) of 5.67.
